These results are taken from patent US7323447B2, “Hepatitis C virus inhibitors” (Bristol-Myers Squibb Company, priority 2005, dated 2008).

The term IC50 denotes the point on the concentration scale where inhibition reaches its midpoint. The term EC50 denotes the concentration needed to bring the measured effect to its halfway point.

The target of assay [1] is T1, HCV NS3/4A protease complex (BMS strain) (UniProt P27958).
T1 construct: other: HCV NS3/4A enzyme assay; said of H77 and J4L6S; fused on or other part: Three-lysine solubilising tail at the NS4A C-terminus and a His tag from pET21b (Ni-NTA purification), for the H77 and J4L6S constructs
T1 sequence (P27958 1027-1657, one chain of several): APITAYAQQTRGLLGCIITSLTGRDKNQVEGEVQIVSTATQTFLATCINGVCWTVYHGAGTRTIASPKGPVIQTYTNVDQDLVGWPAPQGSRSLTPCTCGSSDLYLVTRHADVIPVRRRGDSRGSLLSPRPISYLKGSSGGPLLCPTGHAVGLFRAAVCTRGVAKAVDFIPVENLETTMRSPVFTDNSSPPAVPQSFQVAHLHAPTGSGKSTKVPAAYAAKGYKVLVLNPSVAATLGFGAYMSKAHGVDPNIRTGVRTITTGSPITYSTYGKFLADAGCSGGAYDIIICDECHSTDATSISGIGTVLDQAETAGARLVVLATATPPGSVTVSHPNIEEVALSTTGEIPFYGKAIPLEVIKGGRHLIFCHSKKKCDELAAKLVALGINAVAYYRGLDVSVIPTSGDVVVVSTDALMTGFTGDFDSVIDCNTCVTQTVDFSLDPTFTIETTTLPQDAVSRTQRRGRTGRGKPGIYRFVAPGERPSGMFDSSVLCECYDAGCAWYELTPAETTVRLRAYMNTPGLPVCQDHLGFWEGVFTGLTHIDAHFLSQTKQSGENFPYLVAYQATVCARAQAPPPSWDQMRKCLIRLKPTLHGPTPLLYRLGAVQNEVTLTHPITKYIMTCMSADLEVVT
The assay can be described thus: FRET peptide assay to monitor HCV NS3/4A proteolytic activity, BMS strain. Conditions: read-out: IC50 Range; HCV NS3/4A enzyme assay; Table 1. Type of assay: biochemical, Hepatitis C virus (genotype 1a). An outline of the steps: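 Recombinant NS3/4A (BMS strain, genotype 1a, >90% pure) cleaving FRET depsipeptide RET S1 (EDANS/DABCYL) at 2 μM; enzyme 2-3 nM (300 pM with 50 μg/ml BSA for sensitive runs). Buffer 50 mM HEPES pH 7.5, 0.15 M NaCl, 0.1% Triton, 15% glycerol, 10 mM βME; fluorescence followed in real time.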

Assay [2] has as its system HCV replicon in HUH-7 cells. Nature of the assay: HCV replicon FRET assay. Type of assay: cell-based, Hepatitis C virus (strain 1b). Conditions: Hepatitis C virus, Huh-7, read-out: EC50 Range, HCV replicon cell assay; Table 1. In short, it runs like this: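 HUH-7 cells carrying a genotype 1b subgenomic neo replicon (NS3–NS5B) treated 4 days at 37 °C with compound in 0.5% DMSO final. CC50 from alamarBlue fluorescence after 4 h; cells then lysed with FRET protease substrate at 10 μM final and read kinetically at 340/490 nm to give EC50.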
(In general: A replicon is a self-replicating genome or part of one, used to study replication in cells.)

Structures are written as SMILES. Bounds are passed on as bounds.

For `C=C[C@@H]1C[C@]1(NC(=O)[C@@H]1C[C@@H](Oc2cc(-c3ccccc3)nc3cc(OC)ccc23)CN1C(=O)[C@@H](OC(=O)Nc1ccc(OC)cc1)C(C)(C)C)C(=O)NS(=O)(=O)C1CC1` [Example 5,Compound 5], in assay [1], the IC50 lay within 100 to 1000 nM. For the same molecule, the EC50 in assay [2] was in the range of 500 to 5000 nM.
Take `C=C[C@@H]1C[C@]1(NC(=O)[C@@H]1C[C@@H](Oc2cc(-c3ccccc3)nc3cc(OC)ccc23)CN1C(=O)[C@@H](OC(=O)NC1CCCC1)C(C)(C)C)C(=O)NS(=O)(=O)C1CC1` [Example 5,Compound 3]: the IC50 in assay [1] was < 100 nM. The EC50 in assay [2] is < 500 nM.
The like results for `C=C[C@@H]1C[C@]1(NC(=O)[C@@H]1C[C@@H](Oc2nccc3ccccc23)CN1C(=O)[C@@H](OC(=O)NC(C)C)C(C)(C)C)C(=O)NS(=O)(=O)C1CC1` [Example 26] were, in that order, 100 to 1000 nM and 500 to 5000 nM.
